This note sets out measurements from ChEMBL document CHEMBL1155545, “Design, synthesis and evaluation of 2,4-disubstituted pyrimidines as cholinesterase inhibitors” (Bioorg Med Chem Lett, 2010).

One assay deals with Cholinesterase (Equus caballus, UniProt P81908).
In a further assay the target is Acetylcholinesterase (Electrophorus electricus, UniProt O42275).

Broadly, the IC50 is the midpoint of a concentration-inhibition curve. Read a high IC50 as lower potency.

Cholinesterase, sequence (P81908 whole entry): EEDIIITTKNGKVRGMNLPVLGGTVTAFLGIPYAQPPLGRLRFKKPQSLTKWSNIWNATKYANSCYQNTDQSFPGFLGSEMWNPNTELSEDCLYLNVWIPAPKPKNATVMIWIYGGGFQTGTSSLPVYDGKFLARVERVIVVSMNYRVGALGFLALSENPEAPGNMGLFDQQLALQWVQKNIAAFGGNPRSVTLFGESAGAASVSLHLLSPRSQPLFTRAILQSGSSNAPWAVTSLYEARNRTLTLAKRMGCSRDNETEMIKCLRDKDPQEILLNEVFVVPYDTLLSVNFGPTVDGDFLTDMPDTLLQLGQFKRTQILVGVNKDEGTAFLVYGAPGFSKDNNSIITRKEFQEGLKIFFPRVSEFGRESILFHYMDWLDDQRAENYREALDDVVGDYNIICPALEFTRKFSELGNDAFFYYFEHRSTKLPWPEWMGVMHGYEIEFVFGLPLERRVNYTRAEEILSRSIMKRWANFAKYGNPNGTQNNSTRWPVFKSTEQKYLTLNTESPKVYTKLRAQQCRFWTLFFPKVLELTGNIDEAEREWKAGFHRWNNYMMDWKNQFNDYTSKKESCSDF
Acetylcholinesterase, sequence (O42275 whole entry): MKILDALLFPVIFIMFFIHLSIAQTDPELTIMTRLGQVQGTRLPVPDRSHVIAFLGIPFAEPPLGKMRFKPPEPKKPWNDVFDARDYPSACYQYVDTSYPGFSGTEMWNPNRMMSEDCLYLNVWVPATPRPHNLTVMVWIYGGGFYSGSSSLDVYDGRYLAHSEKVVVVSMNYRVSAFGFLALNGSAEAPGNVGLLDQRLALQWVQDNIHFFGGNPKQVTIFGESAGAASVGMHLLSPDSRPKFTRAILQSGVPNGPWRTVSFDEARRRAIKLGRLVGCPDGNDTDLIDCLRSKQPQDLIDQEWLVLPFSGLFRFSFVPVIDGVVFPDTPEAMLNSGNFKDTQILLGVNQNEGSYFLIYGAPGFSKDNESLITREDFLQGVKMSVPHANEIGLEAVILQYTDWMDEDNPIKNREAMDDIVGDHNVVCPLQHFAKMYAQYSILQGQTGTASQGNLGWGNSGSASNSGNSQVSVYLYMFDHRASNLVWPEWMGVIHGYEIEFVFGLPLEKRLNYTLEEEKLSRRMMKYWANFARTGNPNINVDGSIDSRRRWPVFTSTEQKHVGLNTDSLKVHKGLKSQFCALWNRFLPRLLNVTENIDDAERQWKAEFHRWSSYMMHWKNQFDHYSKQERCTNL
Description for Acetylcholinesterase: Inhibition of electric eel AChE

As to `c1ccc2c(CNc3ccnc(N4CCCC4)n3)cccc2c1`, the IC50 against Cholinesterase came to 8.9 µM; at Acetylcholinesterase it was 5.8 µM.

On to `c1ccc(CCNc2ccnc(N3CCSCC3)n2)cc1`, for which the values for the IC50 at Cholinesterase and on Acetylcholinesterase were greater than 100 µM and 25 µM, respectively.

On to `c1ccc(CCNc2ccnc(N3CCOCC3)n2)cc1`, for which the IC50 against Cholinesterase was greater than 100 µM; against Acetylcholinesterase, 4.8 µM.

For the compound `CC1CCN(c2nccc(NCc3ccccc3)n2)CC1`, the IC50 at Cholinesterase is 2.9 µM; on Acetylcholinesterase, 0.39 µM.

With `c1ccc(CNc2ccnc(N3CCSCC3)n2)cc1`, the IC50 stood at 2.3 µM against Cholinesterase and 0.33 µM on Acetylcholinesterase.

Consider `CN1CCN(c2nccc(NCc3ccccc3)n2)CC1`, for which the IC50 is greater than 100 µM against Cholinesterase and 0.56 µM on Acetylcholinesterase.

The compound `c1ccc(CNc2ccnc(N3CCOCC3)n2)cc1` came in with an IC50 on Acetylcholinesterase of 0.5 µM.

Regarding `c1ccc2c(CNc3ccnc(N4CCSCC4)n3)cccc2c1`, 15.5 µM corresponded to half-maximal inhibition against Acetylcholinesterase (IC50).

As for `CN1CCN(c2nccc(NCCc3ccccc3)n2)CC1`, the IC50 at Cholinesterase is greater than 100 µM; at Acetylcholinesterase it was 14.4 µM.

`c1ccc2c(CNc3ccnc(N4CCOCC4)n3)cccc2c1`: the IC50 at Cholinesterase turned out to be 28 µM; at Acetylcholinesterase, 15.7 µM.

Consider `c1ccc2c(NCCCCCCCNc3c4c(nc5ccccc35)CCCC4)c3c(nc2c1)CCCC3`, for which the IC50 was 0.0105 µM against Cholinesterase and 0.0018 µM against Acetylcholinesterase.

For `CC1CCN(c2nccc(NCCc3ccccc3)n2)CC1`, the IC50 against Cholinesterase came to 17.7 µM; at Acetylcholinesterase, 7.9 µM.

Consider `c1ccc(CNc2ccnc(N3CCCC3)n2)cc1`, for which the IC50 at Cholinesterase was 26.4 µM; against Acetylcholinesterase, 9.8 µM.

For `CN1CCN(c2nccc(NCc3cccc4ccccc34)n2)CC1`, the figures for the IC50 against Cholinesterase and on Acetylcholinesterase were 2.6 µM and 17.6 µM, respectively.
